Where a name gives a salt, the structure may show the parent alone. Read-outs that look alike come from different tables or passages of the source.
Target: T1, human renin (Homo sapiens, UniProt P00797)
T1 construct: taking the active type (67-406); made in house
T1 sequence (P00797 67-406): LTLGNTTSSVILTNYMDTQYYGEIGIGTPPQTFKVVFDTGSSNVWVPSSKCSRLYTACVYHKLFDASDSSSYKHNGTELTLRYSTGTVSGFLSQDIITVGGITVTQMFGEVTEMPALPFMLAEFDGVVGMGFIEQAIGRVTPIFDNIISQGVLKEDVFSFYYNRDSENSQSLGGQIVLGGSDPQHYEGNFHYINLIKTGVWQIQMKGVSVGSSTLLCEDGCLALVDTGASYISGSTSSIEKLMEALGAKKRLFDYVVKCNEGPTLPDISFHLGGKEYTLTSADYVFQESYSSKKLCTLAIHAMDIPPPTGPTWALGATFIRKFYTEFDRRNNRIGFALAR
Assay: Measurement of renin inhibition value - B (angiotensinogen substrate, angiotensin I EIA)
Format: biochemical
Conditions: pH 7.4, 37° C., 30 min; for inhibition at 1 µM: read-out: human renin inhibitory activity: inhibitory activity (%) at 1 μM
Experimental: After the reaction, 0.4 ml of immobilized trypsin inhibitor (Pierce Biotechnology, Inc.) was added to remove the trypsin used in the activation by adsorption. The reaction liquid containing the active type renin was concentrated using Vivaspin 20 (molecular weight cut off 10,000, Vivascience, Inc.), and was diluted with 20 mM Tris-hydrochloric acid (pH 8.0).
(5) Purification of Angiotensinogen
After transfection of the plasmid DNA, the cells were subjected to shaking culture under the conditions of 37° C., 8% CO2 and 125 rpm for 3 days. A 600-ml aliquot of the culture medium was centrifuged at 2,000 rpm for 10 min to recover the culture supernatant containing angiotensinogen. To the culture supernatant was added ammonium sulfate (30% saturated concentration), and the mixture was thoroughly stirred and centrifuged at 8,000 rpm for 20 min. The obtained supernatant was added to TOYO Pearl butyl 650M (2×5 cm, Tosoh Corporation) equilibrated with 50 mM tris-hydrochloric acid (pH 8.0) containing 30% saturated ammonium sulfate, at a flow rate of 25 ml/min to allow adsorption. After washing with equilibration buffer, angiotensinogen was eluted by linear concentration gradient from the buffer used for equilibration to 20 mM tris-hydrochloric acid (pH 8.0). The eluate containing angiotensinogen was applied to repeated concentration and dilution using Vivaspin 20 (molecular weight cut off 10,000, Vivascience, Inc.), and the buffer was changed to 20 mM tris-hydrochloric acid (pH 8.0). The eluate was fed to a 6-ml RESOURCE Q column (Amersham Biosciences, Inc.) equilibrated with 20 mM Tris-hydrochloric acid (pH 8.0) containing 50 mM sodium chloride at a flow rate of 6 ml/min to adsorb the angiotensinogen. After washing the column with the buffer solution used in the equilibration, elution was carried out by means of a linear concentration gradient of sodium chloride from 50 mM to 400 mM. The fractions containing angiotensinogen were collected and concentrated using Vivaspin 20 (molecular weight cut off 10,000, Vivascience, Inc.) to a volume of about 2 ml.
(7) Measurement of Renin Inhibition Value—B
As a substrate for renin activity measurement, the angiotensinogen mentioned in (5) above was used. 1 μeach of the test compound (containing 100% DMSO) was added to each well of a 384-well plate (ABgene). Renin was diluted with a buffer solution for reaction (20 mM sodium phosphate (pH 7.4)) to a concentration of 57 pM, and 14 μl each of the dilution was added to each well. The dilution was left to stand at 37° C. for 10 min, and then 5 μl of each of a 6 μM solution of substrate angiotensinogen was added to each well to initiate the reaction. […] The amount of angiotensin I produced by an enzyme reaction was quantified by Enzyme immunoassay (EIA) described below.
Anti-angiotensin I antibody (Peninsula Laboratories Inc.) diluted 5,000-fold with PBS was added to each well of a 384 well black plate (Nalge Nunc International Co., Ltd.) by 25 μl, and left standing overnight at 4° C. to immobilize the antibody in the plate. The antibody solution was removed, PBS solution (100 μl) containing 1% BSA was added to each well, and the mixture was left standing at room temperature for 2 hr for blocking. The blocking solution was removed, and each well was washed 5 times with 100 μl of 0.05% Tween20-PBS. […] Then, a biotinated angiotensin I solution (AnaSpec, 15 μl) prepared to 1.6 nM with a buffer [20 mM tris-hydrochloric acid (pH 7.4), 150 mM sodium chloride, 0.01% BSA, 0.05% Tween20] was added to each well, mixed with a plate mixer and left standing at room temperature for 1 hr.

Row | Compound | inhibition at 1 µM (1 μM test compound) [%] | other results
1 | CCC1CCCCN1C(=O)c1cnc(C(C)(C)C)nc1NCc1ccco1 (centres unmarked) [Example 21, 2-tert-butyl-5-[(2-ethylpiperidin-1-yl)carbonyl]-N-(2-furylmethyl)pyrimidin-4-amine] | 58 | 
2 | CC(C)CN(C(=O)c1cnc(C(C)(C)C)nc1NCc1ncco1)[C@@H]1CNC[C@H](C(=O)N2CCOCC2)C1 [Example 109, 2-tert-butyl-N-(2-methylpropyl)-N-[(3S,5R)-5-(morpholin-4-ylcarbonyl)piperidin-3-yl]-4-[(1,3-oxazol-2-ylmethyl)amino]pyrimidine-5-carboxamide sulfate] | 98 | 
3 | CC(C)(C)c1ncc(C(=O)N2CCC(CN)CC2)c(NCc2ccco2)n1 [Example 58, 5-{[4-(aminomethyl)piperidin-1-yl]carbonyl}-2-tert-butyl-N-(2-furylmethyl)pyrimidin-4-amine dihydrochloride] | 82 | 
4 | CC(C)CN(C(=O)c1cnc(C(C)(C)C)nc1NCc1ccco1)[C@@H]1CNC[C@H](C(N)=O)C1 [Example 132, 2-tert-butyl-N-[(3S,5R)-5-carbamoylpiperidin-3-yl]-4-[(furan-2-ylmethyl)amino]-N-(2-methylpropyl)pyrimidine-5-carboxamide dihydrochloride] | 98 | 
5 | COCCCNc1nc(C(C)(C)C)ncc1C(=O)N(CC(C)C)[C@@H]1CNC[C@H](C(=O)N2CCOCC2)C1 [Example 97, 2-tert-butyl-4-[(3-methoxypropyl)amino]-N-(2-methylpropyl)-N-[(3S,5R)-5-(morpholin-4-ylcarbonyl)piperidin-3-yl]pyrimidine-5-carboxamide dihydrochloride] |  | inhibition at 1 µM (pH 7.4, 1 μM test compound): 97%
6 | COC(=O)[C@H]1CNC[C@@H](N(CC(C)C)C(=O)c2cnc(C(C)(C)C)nc2NCc2ccccc2)C1 (relative stereo) [Example 99, methyl (3R*,5S*)-5-[{[4-(benzylamino)-2-tert-butylpyrimidin-5-yl]carbonyl}(isobutyl)amino]piperidine-3-carboxylate] | 97 | 
7 | COCCCNc1nc(C(C)(C)C)ncc1C(=O)N(CC(C)C)[C@@H]1CNC[C@H](C(=O)N2CCOCC2)C1.O=C(O)/C=C/C(=O)O [Example 207, 2-tert-butyl-4-[(3-methoxypropyl)amino]-N-(2-methylpropyl)-N-[(3S,5R)-5-(morpholin-4-ylcarbonyl)piperidin-3-yl]pyrimidine-5-carboxamide monofumarate] |  | human renin inhibitory activity: inhibitory activity (%) at 1 μM (1 μM test compound): 98%
8 | COCCCNc1nc(C(C)(C)C)ncc1C(=O)N(CC(C)C)[C@@H]1CNC[C@H](C(=O)OC)C1 [Example 96, methyl (3R,5S)-5-[({2-tert-butyl-4-[(3-methoxypropyl)amino]pyrimidin-5-yl}carbonyl)(isobutyl)amino]piperidine-3-carboxylate dihydrochloride] | 97 | 
9 | CNCC1CCN(C(=O)c2cnc(C(C)C)nc2NCc2ccco2)CC1 [Example 63, N-(2-furylmethyl)-2-isopropyl-5-({4-[(methylamino)methyl]piperidin-1-yl}carbonyl)pyrimidin-4-amine] | 54 | 
10 | CC(C)CN(C(=O)c1cnc(C(C)(C)C)nc1NCc1ccco1)[C@@H]1CNC[C@H](C(=O)N2CCC(C)(O)CC2)C1 (relative stereo) [Example 94, 2-tert-butyl-4-[(2-furylmethyl)amino]-N-{(3R*,5S*)-5-[(4-hydroxy-4-methylpiperidin-1-yl)carbonyl]piperidin-3-yl}-N-isobutylpyrimidine-5-carboxamide dihydrochloride] | 97 | 
11 | CC(C)CN(C(=O)c1cnc(C(C)(C)C)nc1NCc1ccco1)[C@@H]1CNC[C@H](C(N)=O)C1 (relative stereo) [Example 93, N-[(3R*,5S*)-5-(aminocarbonyl)piperidin-3-yl]-2-tert-butyl-4-[(2-furylmethyl)amino]-N-isobutylpyrimidine-5-carboxamide dihydrochloride] | 97 | 
12 | CNCC1CCN(C(=O)c2cnc(C(C)(C)C)nc2NCc2ccco2)CC1 [Example 59, 2-tert-butyl-N-(2-furylmethyl)-5-({4-[(methylamino)methyl]piperidin-1-yl}carbonyl)pyrimidin-4-amine dihydrochloride] | 86 | 
13 | COC(=O)[C@H]1CNC[C@@H](N(CC(C)C)C(=O)c2cnc(C(C)(C)C)nc2NCCCSC)C1 (relative stereo) [Example 98, methyl (3R*,5S*)-5-[[(2-tert-butyl-4-{[3-(methylthio)propyl]amino}pyrimidin-5-yl)carbonyl](isobutyl)amino]piperidine-3-carboxylate] | 97 | 
14 | CC(C)CN(C(=O)c1cnc(C(C)(C)C)nc1NCc1ccco1)[C@@H]1CNC[C@H](C(C)(C)O)C1 (relative stereo) [Example 95, 2-tert-butyl-4-[(2-furylmethyl)amino]-N-[(3R*,5S*)-5-(1-hydroxy-1-methylethyl)piperidin-3-yl]-N-isobutylpyrimidine-5-carboxamide dihydrochloride] | 97 | 
